Read-outs that look alike come from different tables or passages of the source.
How the values were obtained:
Assay type in all cases: biochemical
hSULT1A3 = molecular target: T1, hSULT1A3 (Homo sapiens, UniProt P0DMM9); assay: Fluorescence-based microplate inhibition assay, hSULT1A3-catalyzed HN-241 4-O-sulfation; conditions: for activity at 10 µM: read-out: Residue activity (%) hSULT1A3
T1 construct: 6-histidine tag (N); TEV site (N); made in house; host or cells: Escherichia coli BL21 (DE3), pET29a(+)

hSULT1A1 = molecular target: T2, hSULT1A1 (Homo sapiens, UniProt P50225); assay: Fluorescence-based microplate inhibition assay, hSULT1A1-catalyzed HN-241 4-O-sulfation; conditions: for activity at 1 µM: read-out: Residue activity (%) hSULT1A1;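 on all read-outs here: reaction started with 200 µM PAPS at 37 °C, fluorescence read continuously (Ex 350 nm, Em 450 nm), activity expressed relative to DMSO-only control without inhibitor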
T2 construct: 6-histidine tag (N); TEV site (N); made in house; host or cells: Escherichia coli BL21 (DE3), pET29a(+)

hSULT1A2 = molecular target: T3, hSULT1A2 (Homo sapiens, UniProt P50226); assay: Fluorescence-based microplate inhibition assay, hSULT1A2-catalyzed HN-241 4-O-sulfation; conditions: for remaining activity at 10 µM: 0.25 h, read-out: Residue activity (%) hSULT1A2; for IC50: hSULT1A2-catalyzed HN-241 4-O-sulfation
T3 construct: 6-histidine tag (N); TEV site (N); made in house; host or cells: Escherichia coli BL21 (DE3), pET29a(+)

[1] = test compound 10 μM, HN-241 10 μM, 15 min
[2] = test compound 1 μM, HN-241 1 μM, 15 min
[3] = test compound 10 μM, HN-241 5 μM, 15 min

T2 sequence (P50225 whole entry): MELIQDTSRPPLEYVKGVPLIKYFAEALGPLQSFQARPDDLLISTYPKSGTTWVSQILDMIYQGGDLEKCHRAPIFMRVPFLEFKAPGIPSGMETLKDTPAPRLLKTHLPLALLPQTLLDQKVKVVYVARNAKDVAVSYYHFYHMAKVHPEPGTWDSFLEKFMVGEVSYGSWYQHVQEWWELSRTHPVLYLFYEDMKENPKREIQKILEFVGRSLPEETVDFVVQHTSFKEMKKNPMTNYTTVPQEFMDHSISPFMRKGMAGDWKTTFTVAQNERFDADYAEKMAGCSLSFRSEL
T3 sequence (P50226 whole entry): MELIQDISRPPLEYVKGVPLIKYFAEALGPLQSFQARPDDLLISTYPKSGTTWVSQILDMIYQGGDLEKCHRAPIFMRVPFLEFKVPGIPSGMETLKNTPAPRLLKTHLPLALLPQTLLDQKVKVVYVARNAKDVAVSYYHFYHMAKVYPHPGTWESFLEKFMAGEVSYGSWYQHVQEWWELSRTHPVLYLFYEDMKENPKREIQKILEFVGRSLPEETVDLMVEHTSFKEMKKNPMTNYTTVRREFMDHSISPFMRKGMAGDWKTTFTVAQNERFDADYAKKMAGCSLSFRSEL
T1 sequence (P0DMM9 whole entry): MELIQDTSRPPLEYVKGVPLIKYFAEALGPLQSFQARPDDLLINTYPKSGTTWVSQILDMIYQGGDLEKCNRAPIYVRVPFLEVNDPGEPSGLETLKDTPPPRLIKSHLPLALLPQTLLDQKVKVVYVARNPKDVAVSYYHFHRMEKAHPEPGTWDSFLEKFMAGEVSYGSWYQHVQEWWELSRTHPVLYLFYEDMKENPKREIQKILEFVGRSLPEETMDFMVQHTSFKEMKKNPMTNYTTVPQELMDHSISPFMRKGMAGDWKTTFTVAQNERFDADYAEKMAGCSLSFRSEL

Structure (SMILES)	activity at 10 µM (hSULT1A3; [1]) [%]	activity at 1 µM (hSULT1A1; [2]) [%]	remaining activity at 10 µM (hSULT1A2; [3]) [%]	Residue activity (%) hSULT1A3 (hSULT1A3; [1]) [%]	Residue activity (%) hSULT1A1 (hSULT1A1; [2]) [%]	Residue activity (%) hSULT1A2 (hSULT1A2; [3]) [%]	further results
COc1ccc(-c2cc(=O)c3c(O)cc(O)c(-c4cc(-c5cc(=O)c6c(O)cc(OC)cc6o5)ccc4OC)c3o2)cc1 [Sciadopitysin]	–	–	–	62.24	27.69	2.03	–
COc1c(O)cc2occ(-c3ccc(O)cc3)c(=O)c2c1O [Tectorigenin]	86.8	4.17	4.26	–	–	–	–
CC(C)=CCC[C@](C)(O)[C@H]1CC[C@]2(C)[C@@H]1[C@H](O)C[C@@H]1[C@@]3(C)CC[C@H](O)C(C)(C)[C@@H]3[C@@H](O[C@@H]3O[C@H](CO)[C@@H](O)[C@H](O)[C@H]3O[C@@H]3O[C@H](CO)[C@@H](O)[C@H](O)[C@H]3O)C[C@]12C [Ginsenoside Rf]	104	102	104	–	–	–	–
CC(C)=CCC[C@](C)(O)[C@H]1CC[C@]2(C)[C@@H]1[C@H](O)C[C@@H]1[C@@]3(C)CC[C@H](O[C@@H]4O[C@H](CO)[C@@H](O)[C@H](O)[C@H]4O)C(C)(C)[C@@H]3CC[C@]12C [20(S)-Ginsenoside Rh2]	–	–	–	105.44	85.94	110.74	–
O=C1C[C@@H](c2ccc(O)cc2)Oc2cc(O)ccc21 [Liquiritigenin]	–	–	–	76.68	58.91	25.92	–
O=C(/C=C/c1ccccc1)c1ccccc1 [trans-Chalcone]	–	–	–	116.88	71.86	91.40	–
O=C(O[C@@H]1[C@@H](O)[C@H](Oc2cc(O)c(C(=O)CCc3ccccc3)c(O)c2)O[C@@H]2COC(=O)c3cc(O)c(O)c(O)c3-c3c(cc(O)c(O)c3O)C(=O)O[C@@H]12)c1cc(O)c(O)c(O)c1 [Thonningianin A]	17.6	12	3.29	–	–	–	–
COc1cc([C@@H]2c3cc4c(cc3[C@H](O)[C@H]3COC(=O)[C@H]23)OCO4)cc(OC)c1OC [Podophyllotoxin]	–	–	–	–	–	–	activity at 10 µM (hSULT1A3): 111%; activity at 1 µM (hSULT1A1): 110%; remaining activity at 10 µM (hSULT1A2): 88.9%
CC(C)=CCOc1c2occc2cc2ccc(=O)oc12 [Imperatorin]	128	101	94.3	–	–	–	–
CC(C)=CC[C@@H](O)C1=CC(=O)c2c(O)ccc(O)c2C1=O [Shikonin]	61	64.5	18.6	–	–	–	–
C=C(CCC=C(C)C)[C@H]1CC[C@]2(C)[C@@H]1[C@H](O)C[C@@H]1[C@@]3(C)CC[C@H](O)C(C)(C)[C@@H]3[C@@H](O[C@@H]3O[C@H](CO)[C@@H](O)[C@H](O)[C@H]3O[C@@H]3O[C@@H](C)[C@H](O)[C@@H](O)[C@H]3O)C[C@]12C [Ginsenoside Rg6]	–	–	–	124.68	100.32	103.59	–
O=C1C[C@@H](c2ccc(O[C@@H]3O[C@H](CO)[C@@H](O)[C@H](O)[C@H]3O)cc2)Oc2cc(O)ccc21 [Liquiritin]	100	100	95.1	–	–	–	–
Cc1cc(O)c2c(c1)C(=O)c1cc(O)cc(O)c1C2=O [Emodin]	65	0	0	–	–	–	IC50 (hSULT1A1; hSULT1A1-catalyzed HN-241 4-O-sulfation): 0.0765 ± 0.00528 µM; IC50 (hSULT1A2): 0.36 ± 0.0226 µM
Cc1c2[n+](cc3cc4c(cc13)OCO4)CCc1cc3c(cc1-2)OCO3 [Worenine]	–	–	–	125.56	101.91	92.89	–
C[C@]12CC[C@H](O)C[C@@]1(O)CC[C@@H]1[C@@H]2CC[C@]2(C)[C@@H](c3ccc(=O)oc3)CC[C@]12O [3β,5,14-Trihydroxy-5β-bufa-20,22-dienolide]	–	–	–	114.49	121.35	109.91	–
COc1cc(-c2oc3cc(O)cc(O)c3c(=O)c2O)ccc1O [Isorhamnetin]	58.3	1.36	0.39	–	–	–	–
C[C@H]1C(=O)O[C@@H]2CCN3CC=C(COC(=O)[C@](C)(O)[C@]1(C)O)[C@H]23 [Crotaline]	–	–	–	122.18	128.03	97.30	–
COc1cc(O)c2c(c1)C(=O)c1cc(C)cc(O)c1C2=O [Emodin-3-methyl ether]	–	–	–	103.18	54.41	89.81	–

Continued, in another order:

activity at 10 µM (hSULT1A3; [1]) [%]	activity at 1 µM (hSULT1A1; [2]) [%]	remaining activity at 10 µM (hSULT1A2; [3]) [%]	Residue activity (%) hSULT1A3 (hSULT1A3; [1]) [%]	Residue activity (%) hSULT1A1 (hSULT1A1; [2]) [%]	Residue activity (%) hSULT1A2 (hSULT1A2; [3]) [%]	Structure (SMILES)	further results
45.2	0.45	0	–	–	–	COc1c(O)cc2c(c1O)C(=O)c1c(cc(C)c(O)c1OC)C2=O [Aurantio-obtusin]	IC50 (hSULT1A2): 0.492 ± 0.0152 µM
121	106	112	–	–	–	CC1(C)[C@@H](O[C@H]2O[C@H](C(=O)O)[C@@H](O)[C@H](O)[C@H]2O[C@@H]2O[C@H](C(=O)O)[C@@H](O)[C@H](O)[C@H]2O)CC[C@]2(C)[C@H]3C(=O)C=C4[C@@H]5C[C@@](C)(C(=O)O)CC[C@]5(C)CC[C@@]4(C)[C@]3(C)CC[C@@H]12 [Glycyrrhizic acid]	–
–	–	–	111.42	74.39	80.60	O=C(/C=C/C=C/c1ccccc1)CCc1ccccc1 [Alnustone]	–
55.7	50.7	4.73	–	–	–	O=c1c(O)c(-c2ccc(O)cc2O)oc2cc(O)cc(O)c12 [Morin]	–
–	–	–	100.25	110.54	109.60	CC(C)=CCC[C@@](C)(O)[C@H]1CC[C@]2(C)[C@@H]1[C@H](O)C[C@@H]1[C@@]3(C)CC[C@H](O)C(C)(C)[C@@H]3[C@@H](O[C@@H]3O[C@H](CO)[C@@H](O)[C@H](O)[C@H]3O[C@@H]3OC[C@@H](O)[C@H](O)[C@H]3O)C[C@]12C [20(R)-Notoginsenoside R2]	–
–	–	–	108.00	91.36	84.48	O=C(/C=C/c1ccc(O[C@@H]2O[C@H](CO)[C@@H](O)[C@H](O)[C@H]2O)cc1)c1ccc(O)cc1O [Neoisoliquiritigenin]	–
–	–	–	79.90	28.87	0.52	Cc1c(O)c(C)c2c(c1O)C(=O)[C@H](Cc1ccc3c(c1)OCO3)CO2 [Methylophiopogonanone A]	–
–	–	–	114.83	98.37	97.40	COc1cc2c(=O)c(-c3ccc(O)cc3)coc2cc1O[C@@H]1O[C@H](CO)[C@@H](O)[C@H](O)[C@H]1O [Glycitin]	–
–	–	–	60.08	99.20	86.78	COc1cc(-c2oc3cc(O)cc(O)c3c(=O)c2O[C@@H]2O[C@H](CO[C@@H]3O[C@@H](C)[C@H](O)[C@@H](O)[C@H]3O)[C@@H](O)[C@H](O)[C@H]2O)ccc1O [Narcissoside]	–
115	69.8	49.5	–	–	–	COc1cc(O)cc2c1C(=O)C[C@@H](c1ccccc1)O2 [Alpinetin]	–
105	85.5	85.1	–	–	–	COc1ccc(-c2oc3c(CC=C(C)C)c(O[C@@H]4O[C@H](CO)[C@@H](O)[C@H](O)[C@H]4O)cc(O)c3c(=O)c2O[C@@H]2O[C@@H](C)[C@H](O)[C@@H](O)[C@H]2O)cc1 [Icariin]	–
59.7	3.26	41.7	–	–	–	O=C1c2c(O)cc(O)cc2OC(c2ccc(O)c(O)c2)C1O (stereo not drawn) [Taxifolin]	–
119	128	98.6	–	–	–	C[C@@H]1[C@H]2[C@H](O[C@@H]3O[C@H](CO)[C@@H](O)[C@H](O)[C@H]3O)OC=C(C(=O)O)[C@H]2C[C@@H]1O [Loganic acid]	–
–	–	–	94.23	29.15	1.06	O=C1C=CC(=O)c2cc3ccccc3cc21 [1,4-Anthracenedione]	–
113	93.1	84.8	–	–	–	CCCCCCCCCCCCCCCC(=O)O [Palmitic acid]	–
–	–	–	68.42	18.14	8.07	O=c1cc(-c2ccccc2)oc2ccc(O)c(O)c12 [5,6-Dihydroxy-2-phenylchromen-4-one]	–
104	65.5	111	–	–	–	C[C@@H]1O[C@@H](OC[C@H]2O[C@@H](Oc3cc(O)c4c(c3)O[C@H](c3ccc(O)c(O)c3)CC4=O)[C@H](O)[C@@H](O)[C@@H]2O)[C@H](O)[C@H](O)[C@H]1O [Eriocitrin]	–
–	–	–	70.86	53.37	143.65	CC(C)=CCc1c(-c2ccc(O)cc2O)oc2c(CC=C(C)C)c(O)cc(O)c2c1=O [Mulberrin]	–
62.1	3.31	0.03	–	–	–	CC(C)=CCc1cc(-c2oc3cc(O)cc(O)c3c(=O)c2O)ccc1O [iso-Licoflavonol]	–
114	127	101	–	–	–	CC1(C)CC[C@]2(C(=O)O)CC[C@]3(C)C(=CC[C@@H]4[C@@]5(C)CC[C@H](O)C(C)(C)[C@@H]5CC[C@]43C)[C@@H]2C1 [Oleanolic acid]	–
